Measured values published in patent US20020045268A1, “MEASURING ANALYTES WITH METAL-LIGAND COMPLEX PROBES” (priority 1997, published 2002).
Entries after “also recorded” stand apart in the source; their conditions may differ.

Legend:
Type in all cases: physicochemical
[1] = pH-dependent intensity, phase and modulation data of FIG. 15 and emission spectrum of the dcbpy complex; settings: relative to Ru(bpy)3
Excerpt: FIG. 15 graphically depicts data in connection with the metal-ligand complex [Ru(bpy)2 (dcbpy)]Cl4 showing pH-dependent intensity, phase and modulation data.
The emission shift to longer wavelengths at low pH (FIG. 2) seems to be generally understandable in terms of the electronic properties of the excited MLCs. The long wavelength emission is thought to result from a metal-to-ligand charge transfer (MLCT) state in which an electron is donated from Ru to the ligand. The protonated form of deabpy is probably a better electron acceptor, lowering the energy of the MLCT state, shifting the emission to longer wavelengths and thereby decreasing the lifetime. […] Terpetschnig, E., H. Szmacinski, H. Malak and J. R. Lakowicz. Biophys. J., 68:342-350; Fluorescence Polarization Immunoassay of a High Molecular Weight Antigen Based on a Long-Lifetime Ru-Ligand Complex (1995). Terpetschnig, E., H. Szmacinski and J. R. Lakowicz. Anal. Biochem., 227:140-147].
The dcbpy ligand is probably a better electron acceptor than bpy. […] It could be used at a pH in the range of pH 2 to 5.

[2] = pH-dependent fluorescence emission spectra and intensities in buffers
Procedure: (§1) Ru(bpy)2 (deabpy) (PF6)2 solutions at different pH value were prepared by dissolving equal amount of aqueous Ru(bpy)2 (deabpy) (PF6)2 in different buffer solutions. From pH 2 to pH 4.7, we used citrate buffer; from pH 4.8 to pH 6.3 we used acetate buffer; from pH 6.4 to pH 7.8 we used phosphate buffer; from pH 7.8 to pH 9.0 we used tris buffer, from pH 9.2 to pH 11 we used carbonate/bicarbonate buffer, from pH 11 to pH 12 we used dibasic sodium phosphate/sodium hydroxide buffer. Unless stated otherwise the buffer concentrations were 20 mM and contained 0.1 M potassium chloride to maintain ionic strength.
The fluorescence emission spectra were measured using Aminco Bowman Series AB2 Luminescence Spectrometer with the excitation wavelength of 414 nm. […] The emission intensity ratios (620 nm/650 nm) of the different sample were also recorded.

[3] = frequency-domain intensity decay (lifetime) measurements, single and global multi-exponential analysis
Excerpt: For the phase/modulation measurements (FIGS. 6-9), an air-cooled Argon ion laser (output at 488 nm) was used as the excitation light source, and the modulation frequency was set at 700 kHz. On the emission side, a long-wave pass filter was used to collect the fluorescence with wavelength longer than 600 nm. The reference solution used here was an aqueous solution of Texas Red with a reference lifetime of 4 ns. For the lifetime measurements, we used the same instrumentation and reference solution, and 23 different modulation frequencies ranging from 11 kHz to 2 MHZ.
Single and multi-exponential intensity decays were recovered from the multi-frequency data as described previously [see, Construction and Performance of a Variable-Frequency Phase-Modulation Fluorometer (1985). Lakowicz, J. R. and B. P. Maliwal. Biophys. Chem., 21:61-78; Frequency-Domain Fluorescence Spectroscopy (1991) in Topics in Fluorescence Spectroscopy, Vol. 1: Techniques, (Lakowicz, J. R., Ed.). Plenum Press, New York, pp. 293-355]. The data were analyzed globally in terms of the multi-exponential model [formula]
where Ik(t) are the intensity decays at each pH (k) value, Ti are the decay times and αik are the amplitudes. For the global analysis we assumed that the αik values would depend on pH, but that the two lifetimes would be independent of pH. The goodness-of-fit was judged by the usual XR^2 criterion with assumed uncertainties in phase δp=0.2° and modulation δm=0.005.

[4] = pH-dependent absorption at 450 nm (ground state pKa); settings: from changes in absorption at 450 nm
Procedure: Chemicals and solvents were purchased from Aldrich and used without further purification. Absorption spectra were measured using a Perkin Elmer lambda 6 UV/Vis spectrophotometer. Observed were two isosbestic points at 414 nm and 475 nm. The absorbance at 450 nm of different samples were measured to obtain the ground state pKa.
as §1

O=C(O)c1ccnc(-c2cc(C(=O)O)ccn2)c1.[Ru+2].c1ccc(-c2ccccn2)nc1.c1ccc(-c2ccccn2)nc1 [[Ru(dcbpy)(bpy)2]^2+]
emission spectrum shift [1]: red shift

CCN(CC)Cc1ccnc(-c2cc(CN(CC)CC)ccn2)c1.[Ru+2].c1ccc(-c2ccccn2)nc1.c1ccc(-c2ccccn2)nc1 [[Ru(deabpy)(bpy)2]^2+]
dependence of apparent pKa on ionic strength / buffer concentration ([2]; 20, 50 and 100 mM phosphate buffer): not found to be dependent on ionic strength; also recorded: same apparent pKa values | emission maximum ([2]; acidic sample (low pH), excitation 414 nm): 650 nm | increase of emission spectrum ([2]; as pH increases from 2.52 to 11.8): about 3 fold | emission maximum ([2]; basic sample, excitation 414 nm): 620 nm | apparent pKa observed by fluorescence ([2]; pH-dependent fluorescence intensities, excitation 414 nm): ~7.5 | mean decay time ([3]; high pH): ~390 ns | mean decay time ([3]; low pH, protonated amino groups): ~240 ns | α1, amplitude of 235 ns component, global analysis ([3]; pH 2.4): 0.964 | α2, amplitude of 380 ns component, global analysis ([3]; pH 2.4): 0.036 | τ2 (ns), global analysis ([3]; pH 2.4): 380 ns | τi (ns), global analysis ([3]; pH 2.4): 235 ns | τ(ns), single decay time analysis ([3]; pH 2.40): 236 ns | α1, amplitude of 235 ns component, global analysis ([3]; pH 5.8): 0.893 | α2, amplitude of 380 ns component, global analysis ([3]; pH 5.8): 0.107 | τ2 (ns), global analysis ([3]; pH 5.8): 380 ns | τi (ns), global analysis ([3]; pH 5.8): 235 ns | τ(ns), single decay time analysis ([3]; pH 5.89): 252 ns | α1, amplitude of 235 ns component, global analysis ([3]; pH 6.91): 0.828 | α2, amplitude of 380 ns component, global analysis ([3]; pH 6.91): 0.172 | τ2 (ns), global analysis ([3]; pH 6.91): 380 ns | τ(ns), single decay time analysis ([3]; pH 6.91): 262 ns | τi (ns), global analysis ([3]; pH 6.91): 235 ns | α1, amplitude of 235 ns component, global analysis ([3]; pH 7.45): 0.687 | α2, amplitude of 380 ns component, global analysis ([3]; pH 7.45): 0.313 | τ2 (ns), global analysis ([3]; pH 7.45): 380 ns | τ(ns), single decay time analysis ([3]; pH 7.45): 284 ns | τi (ns), global analysis ([3]; pH 7.45): 235 ns | α1, amplitude of 235 ns component, global analysis ([3]; pH 8.02): 0.380 | α2, amplitude of 380 ns component, global analysis ([3]; pH 8.02): 0.620 | τ2 (ns), global analysis ([3]; pH 8.02): 380 ns | τ(ns), single decay time analysis ([3]; pH 8.02): 327 ns | τi (ns), global analysis ([3]; pH 8.02): 235 ns | α1, amplitude of 235 ns component, global analysis ([3]; pH 13.5): 0 | α2, amplitude of 380 ns component, global analysis ([3]; pH 13.5): 1.0 | τ2 (ns), global analysis ([3]; pH 13.5): 380 ns | τ(ns), single decay time analysis ([3]; pH 13.5): 392 ns | τi (ns), global analysis ([3]; pH 13.5): 235 ns | decay time, global analysis ([3]; protonated form): 235 ns | decay time, global analysis ([3]; unprotonated form): 380 ns | ground state pKa [4]: 7.14
